The results in this text go back to patent US7786043B2, “2-(pyridin-2-yl)-pyrimidines and their use for controlling harmful fungi” (BASF Aktiengesellschaft, priority 2004, dated 2010).

Structures are written as SMILES.

Common to all, as to assay type: in vivo
Experiment [1] deals with Erysiphe [syn. Blumeria] graminis forma specialis. tritici. In words: Use Example 3: activity against mildew of wheat caused by Erysiphe [syn. Blumeria] graminis forma specialis tritici. The conditions noted are these: 250 ppm, wheat seedlings, protective, rated after 7 days; untreated plants 90% infected. As to the method: (§1) For the use examples 1 to 5 the active compounds were prepared separately as a stock solution with 0.25% by weight of active compound in acetone or DMSO. 1% by weight of the emulsifier Wettol® EM 31 (wetting agent having emulsifying and dispersing action based on ethoxylated alkylphenols) was added to this solution, and the solution was diluted with water to the desired concentration.
Leaves of potted wheat seedlings of the cultiva “Kanzler” were sprayed to runoff point with an aqueous suspension having the concentration of active compounds stated below. 24 h after the spray coating had dried on, the leaves were dusted with the spores of mildew of wheat (Erysiphe [syn. Blumeria] graminis form a specialis. tritici). The plants were then placed in a greenhouse at temperatures between 20 and 24° C. and at 60-90% relative atmospheric humidity. After 7 days, the extent of the fungal infection was determined visually by the infected leaf area.

For experiment [2], the system named is Puccinia recondita. The experiment in a line: Use Example 5: curative activity against brown rust of wheat caused by Puccinia recondita. The settings on record: 250 ppm, wheat seedlings, curative (sprayed one day after inoculation), 7 days; untreated plants 90% infected. As to the method:
as §1
Leaves of potted wheat seedlings of the cultivar “Kanzler” were inoculated with a spore suspension of brown rust (Puccinia recondita). The pots were then placed in a chamber at high atmospheric humidity (90 to 95%) and 20 to 22° C. for 24 hours. During this time, the spores germinated and the germ tubes penetrated into the leaf tissue. The next day, the infected plants were sprayed to runoff point with an aqueous suspension having the active compound concentration stated below. The suspension or emulsion had been prepared as described above. After the spray coating had dried, the test plants were cultivated in a greenhouse at temperatures between 20 and 22° C. and at 65 to 70% relative atmospheric humidity for 7 days. The extent of the rust fungus development on the leaves was then determined.

The subject of experiment [3] is Alternaria solani. The experiment in a line: Use Example 1: activity against early blight caused by Alternaria solani (tomato plants). The settings on record: 250 ppm, tomato plants sprayed one day before infection, rated after 5 days; untreated plants 90% infected.
Experiment [4] relates to Plasmopara viticola. The experiment in a line: Use Example 4: activity against peronospora of grapevines caused by Plasmopara viticola. The settings on record: 63 ppm, potted grapevines, protective; untreated plants 90% infected. As to the method: as §1
Leaves of potted grapevines were sprayed to runoff point with an aqueous suspension having the concentration of active compounds stated below. The next day, the undersides of the leaves were inoculated with an aqueous sporangia suspension of Plasmopara viticola. The plants were then initially placed in a water-vapor-saturated chamber for 48 h and then in a greenhouse at temperatures between 20 and 30° C. After this period of time, the plants were, to promote sporangial eruption, again placed in the water-vapor-saturated chamber for 16 h. The extent of the development of the infection on the undersides of the leaves was then determined.

In experiment [5] the test system is Botrytis cinerea. In words: Use Example 2: activity against gray mold on bell pepper leaves caused by Botrytis cinerea, protective application. The conditions noted are these: 250 ppm, rated after 5 days, untreated plants 90% infected. As for the experimental part: as §1
Bell pepper leaves of the cultiva “Neusiedler Ideal Elite” were, after 2 to 3 leaves had become well developed, sprayed to runoff point with an aqueous suspension having the concentration of active compounds stated below. The next day, the treated plants were inoculated with an aqueous spore suspension of Botrytis cinerea in a 2% aqueous biomalt solution having a density of 1.7×10^6 spores/ml. The plants were then placed in a climatized chamber at temperatures between 22 and 24° C. and at high atmospheric humidity. After 5 days, the extent of the fungal infection was determined visually by the infected leaf area.

As for `Cc1ccc(-c2ncc3c(n2)CCCC3)nc1-c1ccc(F)cc1` [2-(5-methyl-6-(4-fluorophenyl)pyridin-2-yl)-5,6,7,8-tetrahydroquinazoline, reference compound], the “infection (infected leaf area)” value in experiment [1] is on record as 80%. Moreover, in experiment [2], the “infection (rust fungus development)” value is on record as 50%. Also, the infection is listed as 80% in experiment [3] and 70% in experiment [4].
Take `Cc1ccc(-c2ncc3c(n2)CCCCC3)nc1-c1ccccc1` [Example 6]: in experiment [5], the “infection (infected leaf area)” value was “no infection”.
As for `Fc1ccc(-c2cccc(-c3ncc4c(n3)CCCCC4)n2)cc1` [Example 7], the “infection (infected leaf area)” value in experiment [1] was 20%; in experiment [5], “no infection”. The infection result in experiment [3] and in experiment [4] was “no infection” each time.
As to `Cc1ccc(-c2ncc3c(n2)CCCCC3)nc1-c1ccccc1` [Example 1, 2-(5-methyl-6-phenylpyridin-2-yl)-6,7,8,9-tetrahydro-5H-cycloheptapyrimidine], the infection result in experiment [3] was “no infection”.
Regarding `Cc1ccc(-c2ncc3c(n2)CCCCC3)nc1-c1ccc(F)cc1` [Example 9], in experiment [2], the “infection (rust fungus development)” value was determined as 20%. The infection entry in experiment [3] was “no infection”.
For `c1ccc(-c2cccc(-c3ncc4c(n3)CCCCCC4)n2)cc1` [Example 11], the infection result in experiment [3] was “no infection”. Also, the “infection (infected leaf area)” value in experiment [5] is “no infection”.
